Experimental data reported in US11479563B2, “Biphenyl compound or salt thereof” (TAIHO PHARMACEUTICAL CO., LTD., priority 2017, dated 2022).

What was measured:
[1] = tested on: NCI-H1417 cells (human small-cell lung cancer cell lines); test: cells; conditions: NCI-H1417, read-out: Cell-Growth Inhibition Test: NCI-H1417 Cells IC50 (nM);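 note: growth of NCI-H1417 cells over 10 days at 37 °C, read as viable-cell luminescence by CellTiter-Glo 2.0, expressed as % of DMSO-only control wells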
[2] = tested on: HEL cells (human acute myelocytic leukemia cell lines); test: cells; conditions: read-out: Cell-Growth Inhibition Test: HEL Cells IC50 (nM);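 note: viable cell count by CellTiter-Glo 2.0 luminescence after 5 days of culture at 37 °C, growth expressed relative to DMSO-only wells as 100%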
[3] = tested on: NCI-H146 cells (human small-cell lung cancer cell lines); test: Cell-growth inhibition test: NCI-H146 cells; format: cell-based; conditions: Homo sapiens, NCI-H146, read-out: Cell-Growth Inhibition Test: NCI-H146 Cells IC50 (nM)
Protocol: Under the following conditions, an in vitro cell-growth inhibition test was performed with respect to HEL cells (human acute myelocytic leukemia cell lines), NCI-H1417 cells (human small-cell lung cancer cell lines), and NCI-H146 cells (human small-cell lung cancer cell lines).
The cells with the compound of the present invention or with dimethylsulfoxide alone were cultured at 37° C. in a 5% carbon-dioxide-containing incubator for 5 days (HEL cells) or 10 days (NCI-H1417 cells and NCI-H146 cells). After culture, the plate was allowed to stand at room temperature for 30 minutes, and 100 μL of the supernatant was removed from each well to leave 100 μL of the cell culture solution. To each well containing the remaining 100 μL of the cell culture solution, the same amount of CellTiter-Glo 2.0 Assay (Promega, Cat #: G9242) was added. The microplate was shaken with a plate mixer for 1 minute and then allowed to stand in a dark place for 10 minutes. Thereafter, the luminescence intensity of viable cells in each well was measured using a microplate reader (PerkinElmer, EnSpire). […] Cell growth rate (%)=T/C×100 T: The luminescence intensity in a well to which the compound of the present invention was added (count per second) C: The luminescence intensity in a well to which dimethylsulfoxide alone was added (count per second)

SMILES	IC50 [1]	IC50 [2]	IC50 [3]
CC(C)(O)Cn1ccc2cc(-c3ccc(C(=O)N4[C@@H]5CC[C@H]4C[C@@H](N)C5)cc3-c3ccc(C#N)c(F)c3)c(F)cc21 [Example 136]	2.39 nM	0.9 nM	
N#Cc1ccc(-c2cc(C(=O)N3[C@@H]4CC[C@H]3C[C@H](N)C4)ccc2-c2ccc3cccnc3c2F)cc1F [Example 105]	11.7 nM		
Cn1nnc2cc(-c3ccc(C(=O)N4C5CCC4C(N)C5)cc3-c3ccc(C#N)c(F)c3)c(F)c(F)c21 (centres unmarked) [Example 175]		0.2 nM	
CN1CCOc2cc(-c3ccc(C(=O)N4[C@@H]5CC[C@H]4C[C@@H](N)C5)cc3-c3ccc(C#N)c(F)c3)ccc21 [Example 128]		5.7 nM	
Cn1cc(C(=O)O)c2cc(-c3ccc(C(=O)N4C5CCC4C(N)C5)cc3-c3ccc(C#N)c(F)c3)c(F)cc21 [Example 224, 5-(5-((1S,2S,4R)-rel-2-amino-7-azabicyclo[2.2.1]heptane-7-carbonyl)-4′-cyano-3′-fluoro-[1,1′-biphenyl]-2-yl)-6-fluoro-1-methyl-1H-indole-3-carboxylic acid-isomer-X]		46.2 nM	
CC(C)(O)Cn1nc(Br)c2cc(-c3ccc(C(=O)N4[C@@H]5CC[C@H]4C[C@@H](N)C5)cc3-c3ccc(C#N)c(F)c3)c(F)cc21 [Example 178, 5′-((3-endo)-3-amino-8-azabicyclo[3.2.1]octane-8-carbonyl)-2′-(3-bromo-6-fluoro-1-(2-hydroxy-2-methylpropyl)-1H-indazol-5-yl)-3-fluoro-[1,1′-biphenyl]-4-carbonitrile]	3.03 nM	3.57 nM	
CC(C)(C)n1nnc2cc(-c3ccc(C(=O)N4[C@@H]5CC[C@H]4C[C@@H](N)C5)cc3-c3ccc(C#N)c(F)c3)c(F)cc21 [Example 139]		16.9 nM	
CC(C)(O)Cc1ccc(-c2ccc(C(=O)N3[C@@H]4CC[C@H]3C[C@H](N)C4)cc2-c2ccc(C#N)c(F)c2)c(F)c1 [Example 28]	4.4 nM		
N#Cc1ccc(-c2cc(C(=O)N3C4CCC3C(N)C4)ccc2-c2cc3nnn(CC4(O)CCC4)c3c(Cl)c2F)cc1F [Example 257, 5′-((1S,2S,4R)-rel-2-amino-7-azabicyclo[2.2.1]heptane-7-carbonyl)-2′-(7-chloro-6-fluoro-1-((1-hydroxycyclobutyl)methyl)-1H-benzo[d][1,2,3]triazol-5-yl)-3-fluoro-[1,1′-biphenyl]-4-carbonitrile-isomer-X]		0.13 nM	0.39 nM
Cn1nnc2cc(-c3ccc(C(=O)N4[C@@H]5CC[C@H]4C[C@H](N)C5)cc3-c3ccc(C#N)c(F)c3)c(F)cc21 [Example 109]	1.81 nM	15.1 nM	
N#Cc1ccc(-c2cc(C(=O)N3[C@@H]4CC[C@H]3C[C@@H](N)C4)ccc2-c2cc3nnn(CC4(O)CCC4)c3c(C(F)F)c2F)cc1F [Example 262, 5′-((3-endo)-3-amino-8-azabicyclo[3.2.1]octane-8-carbonyl)-2′-(7-(difluoromethyl)-6-fluoro-1-((1-hydroxycyclobutyl)methyl)-1H-benzo[d][1,2,3]triazol-5-yl)-3-fluoro-[1,1′-biphenyl]-4-carbonitrile]		0.93 nM	3.1 nM
Cn1ncc2c(F)c(-c3ccc(C(=O)N4[C@@H]5CC[C@H]4C[C@H](N)C5)cc3-c3ccc(C#N)c(F)c3)ccc21 [Example 110]	3.54 nM	7.41 nM	
Cc1ccc(-c2ccc(C(=O)N3[C@@H]4CC[C@H]3C[C@H](N)C4)cc2-c2ccc(C#N)cc2)cc1 [Example 7]	28 nM	14.8 nM	
COCCc1ccc(-c2ccc(C(=O)N3[C@@H]4CC[C@H]3C[C@H](N)C4)cc2-c2ccc(C#N)c(F)c2)c(F)c1 [Example 26]	3.15 nM	4.83 nM	
CC(C)(O)Cn1cc(C(=O)O)c2cc(-c3ccc(C(=O)N4C5CCC4C(N)C5)cc3-c3ccc(C#N)c(F)c3)c(F)cc21 [Example 222, 5-(5-((1S,2S,4R)-rel-2-amino-7-azabicyclo[2.2.1]heptane-7-carbonyl)-4′-cyano-3′-fluoro-[1,1′-biphenyl]-2-yl)-6-fluoro-1-(2-hydroxy-2-methylpropyl)-1H-indole-3-carboxylic acid-isomer-X]	41.8 nM	38 nM	
Cn1cnc2cc(-c3ccc(C(=O)N4[C@@H]5CC[C@H]4C[C@@H](N)C5)cc3-c3ccc(C#N)c(F)c3)c(F)cc21 [Example 130]	8.25 nM	22.2 nM	
CCCn1nnc2cc(-c3ccc(C(=O)N4[C@@H]5CC[C@H]4C[C@@H](N)C5)cc3-c3ccc(C#N)c(F)c3)c(F)cc21 [Example 168]	7.29 nM	5.29 nM	
Cn1cnc2cc(-c3ccc(C(=O)N4[C@@H]5CC[C@H]4C[C@@H](N)C5)cc3-c3ccc(C#N)c(F)c3)c(F)c(F)c21 [Example 126]	5.02 nM	5.39 nM	
CC(C)(O)Cn1nnc2cc(-c3ccc(C(=O)N4C5CCC4C(N)C5)cc3-c3ccc(C#N)c(F)c3)c(F)c(C(F)F)c21 [Example 246, 5′-((1S,2S,4R)-rel-2-amino-7-azabicyclo[2.2.1]heptane-7-carbonyl)-2′-(7-(difluoromethyl)-6-fluoro-1-(2-hydroxy-2-methylpropyl)-1H-benzo[d][1,2,3]triazol-5-yl)-3-fluoro-[1,1′-biphenyl]-4-carbonitrile-isomer-X]	0.81 nM	0.37 nM	

SMILES	IC50 [1]	IC50 [2]	IC50 [3]
N#Cc1ccc(-c2cc(C(=O)N3[C@@H]4CC[C@H]3C[C@H](N)C4)ccc2-c2ccc3ccccc3c2)cc1F [Example 104]	49.8 nM	28.8 nM	
CN1CCOc2cc(-c3ccc(C(=O)N4[C@@H]5CC[C@H]4C[C@H](N)C5)cc3-c3ccc(C#N)c(F)c3)ccc21 [Example 106]	6.15 nM	5.74 nM	
CC(C)N[C@@H]1C[C@H]2CC[C@@H](C1)N2C(=O)c1ccc(-c2ccc(CC(C)(C)O)cc2F)c(-c2ccc(C#N)c(F)c2)c1 [Example 113]	13.7 nM	9 nM	
Cc1ccc(-c2ccc(C(=O)N3[C@@H]4CC[C@H]3C[C@@H](N)C4)cc2-c2ccc(C#N)c(F)c2)c(F)c1F [Example 144]		6.37 nM	
Cn1c(=O)sc2cc(-c3ccc(C(=O)N4[C@@H]5CC[C@H]4C[C@@H](N)C5)cc3-c3ccc(C#N)c(F)c3)ccc21 [Example 133]	17.9 nM	17.7 nM	
CCn1nnc2cc(-c3ccc(C(=O)N4[C@@H]5CC[C@H]4C[C@@H](N)C5)cc3-c3ccc(C#N)c(F)c3)c(F)cc21 [Example 160]	9.2 nM	7.03 nM	
Cn1nnc2cc(-c3ccc(C(=O)N4[C@@H]5CC[C@H]4C[C@@H](N)C5)cc3-c3ccc(C#N)c(F)c3)c(F)c(F)c21 [Example 145]	3.29 nM	1.61 nM	
N#Cc1ccc(-c2cc(C(=O)N3[C@@H]4CC[C@H]3C[C@H](N)C4)ccc2-c2ccc3cccnc3c2)cc1F [Example 107]	18.2 nM		
CC(C)(O)Cn1nnc2cc(-c3ccc(C(=O)N4CC[C@H](N)C4)cc3-c3ccc(C#N)c(F)c3)c(F)c(F)c21 [Example 162]	4.69 nM	17.7 nM	
CC(C)(O)Cn1ncc2cc(-c3ccc(C(=O)N4C5CCC4C(N)C5)cc3-c3ccc(C#N)c(F)c3)c(F)cc21 (centres unmarked) [Example 176]		0.2 nM	
CN(C)c1ccc(-c2ccc(C(=O)N3[C@@H]4CC[C@H]3C[C@@H](N)C4)cc2-c2ccc(C#N)c(F)c2)cn1 [Example 131]	30.9 nM	15.2 nM	
CC(C)(O)Cn1ncc2cc(-c3ccc(C(=O)N4[C@@H]5CC[C@H]4C[C@@H](N)C5)cc3-c3ccc(C#N)c(F)c3)c(F)cc21 [Example 142]	3.79 nM	3.86 nM	
Cc1ccc(-c2ccc(C(=O)N3[C@@H]4CC[C@H]3C[C@@H](N)C4)cc2-c2ccc(C#N)c(F)c2)c(F)c1 [Example 21]	32.6 nM	8.34 nM	
Cn1nnc2cc(-c3ccc(C(=O)N4[C@@H]5CC[C@H]4C[C@@H](N)C5)cc3-c3ccc(C#N)c(F)c3)c(F)cc21 [Example 125]	8.43 nM	7.57 nM	
COCCc1ccc(-c2ccc(C(=O)N3[C@@H]4CC[C@H]3C[C@H](NC(C)C)C4)cc2-c2ccc(C#N)c(F)c2)c(F)c1 [Example 112]	20.5 nM		
CC(C)(O)Cn1nnc2cc(-c3ccc(C(=O)N4C5CCC4C(N)C5)cc3-c3ccc(C#N)c(F)c3)c(F)c(C3CC3)c21 [Example 279, 5′-((1R,2R,4S)-rel-2-amino-7-azabicyclo[2.2.1]heptane-7-carbonyl)-2′-(7-cyclopropyl-6-fluoro-1-(2-hydroxy-2-methylpropyl)-1H-benzo[d][1,2,3]triazol-5-yl)-3-fluoro-[1,1′-biphenyl]-4-carbonitrile-isomer-X]	0.9 nM	1.59 nM	
CC(C)(O)Cn1ccc2cc(-c3ccc(C(=O)N4C5CCC4C(N)C5)cc3-c3ccc(C#N)c(F)c3)c(F)cc21 (centres unmarked) [Example 171]		0.09 nM	
Cn1cnc2cc(-c3ccc(C(=O)N4[C@@H]5CC[C@H]4C[C@H](N)C5)cc3-c3ccc(C#N)c(F)c3)c(F)cc21 [Example 108]	3.99 nM	36.4 nM	
Cn1ncc2cc(-c3ccc(C(=O)N4[C@@H]5CC[C@H]4C[C@@H](N)C5)cc3-c3ccc(C#N)c(F)c3)c(F)cc21 [Example 124]	9.02 nM	2.84 nM	
